Assay results as given in US8952024B2, “Herbicidal pyrimidone derivatives” (E I du Pont de Nemours and Company, priority 2009, dated 2015).
Like-named read-outs stand apart in the source and are kept apart here.

What was measured:
Assay in all cases: Test B pre-/postemergence plant response
Format in all cases: in vivo
[1] = tested on: johnsongrass (Sorghum halepense); conditions: Sorghum halepense; for pest or weed control at 31 g/ha: 31 g ai/ha; for pest or weed control at 62 g/ha: 62 g ai/ha
Description: (§1) Seeds of plant species selected from blackgrass (Alopecurus myosuroides), downy bromegrass (Bromus tectorum), green foxtail (Setaria viridis), Italian ryegrass (Lolium multiflorum), wheat (Triticum aestivum), wild oat (Avena fatua), deadnettle (henbit deadnettle, Lamium amplexicaule), galium (catchweed bedstraw, Galium aparine), bermudagrass (Cynodon dactylon), Surinam grass (Brachiaria decumbens), cocklebur (Xanthium strumarium), corn (Zea mays), large crabgrass (Digitaria sanguinalis), woolly cupgrass (Eriochloa villosa), giant foxtail (Setaria faberii), goosegrass (Eleusine indica), johnsongrass (Sorghum halepense), kochia (Kochia scoparia), lambsquarters (Chenopodium album), morningglory (Ipomoea coccinea), nightshade (eastern black nightshade, Solanum ptycanthum), yellow nutsedge (Cyperus esculentus), pigweed (Amaranthus retroflexus), ragweed (common ragweed, Ambrosia elatior), Russian thistle (Salsola kali), soybean (Glycine max), sunflower (common oilseed sunflower, Helianthus annuus) and velvetleaf (Abutilon theophrasti) were planted into a blend of loam soil and sand and treated preemergence with test compounds formulated in a non-phytotoxic solvent mixture which included a surfactant.
(§2) At the same time, plants selected from these crop and weed species and also winter barley (Hordeum vulgare), canarygrass (Phalaris minor), chickweed (Stellaria media) and windgrass (Apera spica-venti) were planted in pots containing Redi-Earth® planting medium (Scotts Company, 14111 Scottslawn Road, Marysville, Ohio 43041) comprising spaghnum peat moss, vermiculite, wetting agent and starter nutrients and treated with postemergence applications of some of the test chemicals formulated in the same manner. Plants ranged in height from 2 to 18 cm (1- to 4-leaf stage) for postemergence treatments.
(§3) Treated plants and controls were maintained in a greenhouse for 13 to 15 days, after which time all treated plants were visually evaluated and compared to controls. Plant response ratings, summarized in Table B, are based on a scale of 0 to 100 where 0 is no effect and 100 is complete control. A dash (-) response means no test result.

kochia (Kochia scoparia) = conditions: for pest or weed control at 16 g/ha: 16 g ai/ha; for pest or weed control at 16 g/ha / pest or weed control at 31 g/ha / pest or weed control at 62 g/ha: read-out: Plant response rating, Kochia; for pest or weed control at 31 g/ha: 31 g ai/ha; for pest or weed control at 62 g/ha: 62 g ai/ha
Description: as §1, §2, §3

[2] = tested on: large crabgrass (Digitaria sanguinalis); conditions: for pest or weed control at 16 g/ha: 16 g ai/ha; for pest or weed control at 16 g/ha / pest or weed control at 31 g/ha / pest or weed control at 62 g/ha: read-out: Plant response rating, Crabgrass, Large; for pest or weed control at 31 g/ha: 31 g ai/ha; for pest or weed control at 62 g/ha: 62 g ai/ha
Description: as §1, §2, §3

[3] = tested on: morningglory (Ipomoea coccinea); conditions: for pest or weed control at 16 g/ha: 16 g ai/ha; for pest or weed control at 16 g/ha / pest or weed control at 31 g/ha / pest or weed control at 62 g/ha: read-out: Plant response rating, Morningglory; for pest or weed control at 31 g/ha: 31 g ai/ha; for pest or weed control at 62 g/ha: 62 g ai/ha
Description: as §1, §2, §3

soybean (Glycine max) = conditions: for plant injury at 31 g/ha: 31 g ai/ha, scale 0 to 100 (0 no effect, 100 complete control); for plant injury at 62 g/ha: 62 g ai/ha
Description: as §1, §2, §3

[4] = tested on: velvetleaf (Abutilon theophrasti); conditions: for pest or weed control at 31 g/ha: 31 g ai/ha; for pest or weed control at 31 g/ha / pest or weed control at 62 g/ha: read-out: Plant response rating, Velvetleaf; for pest or weed control at 62 g/ha: 62 g ai/ha
Description: as §1, §2, §3

wild oat (Avena fatua) = conditions: for pest or weed control at 16 g/ha: 16 g ai/ha; for pest or weed control at 62 g/ha: 62 g ai/ha
Description: as §1, §2, §3

[5] = tested on: woolly cupgrass (Eriochloa villosa); conditions: for pest or weed control at 16 g/ha: 16 g ai/ha; for pest or weed control at 16 g/ha / pest or weed control at 31 g/ha / pest or weed control at 62 g/ha: read-out: Plant response rating, Cupgrass, Woolly; for pest or weed control at 31 g/ha: 31 g ai/ha; for pest or weed control at 62 g/ha: 62 g ai/ha
Description: as §1, §2, §3

[6] = tested on: yellow nutsedge (Cyperus esculentus); conditions: for pest or weed control at 16 g/ha: 16 g ai/ha; for pest or weed control at 16 g/ha / pest or weed control at 31 g/ha / pest or weed control at 62 g/ha: read-out: Plant response rating, Nutsedge, Yellow; for pest or weed control at 31 g/ha: 31 g ai/ha; for pest or weed control at 62 g/ha: 62 g ai/ha
Description: as §1, §2, §3

[7] = Bassia scoparia, pre-emergence, Preemergence, scale 0 to 100 (0 no effect, 100 complete control)
[8] = Preemergence, 125 g ai/ha, 0 to 100 scale
[9] = Digitaria sanguinalis, pre-emergence, Preemergence, scale 0 to 100 (0 no effect, 100 complete control)
[10] = Ipomoea, pre-emergence, Preemergence, scale 0 to 100 (0 no effect, 100 complete control)
[11] = Abutilon theophrasti, pre-emergence, 360 h, Preemergence, scale 0 to 100 (0 no effect, 100 complete control)
[12] = Avena fatua, pre-emergence, Preemergence, scale 0 to 100 (0 no effect, 100 complete control), read-out: Plant response rating, Oat, Wild
[13] = Eriochloa villosa, pre-emergence, Preemergence, scale 0 to 100 (0 no effect, 100 complete control)
[14] = Cyperus, pre-emergence, Preemergence, scale 0 to 100 (0 no effect, 100 complete control)

O=C1CCCC(O)=C1C(=O)c1cnc(-c2ccccc2)n(-c2ccccc2)c1=O [Compound 2, 5-[(2-hydroxy-6-oxo-1-cyclohexen-1-yl)carbonyl]-2,3-diphenyl-4(3H)-pyrimidinone]
pest or weed control at 31 g/ha ([1]; post-emergence, Postemergence, scale 0 to 100 (0 no effect, 100 complete control), read-out: Plant response rating, Johnsongrass): 85%
pest or weed control at 62 g/ha ([1]; post-emergence, Postemergence, scale 0 (no effect) to 100 (complete control), 13 to 15 days, read-out: Plant response rating, Johnsongrass): 90%
pest or weed control at 125 g/ha ([1]; post-emergence, Postemergence, 125 g ai/ha, visual rating after 13 to 15 days, scale 0 (no effect) to 100 (complete control)): 98%
pest or weed control at 16 g/ha ([1]; pre-emergence, Preemergence, 16 g ai/ha, scale 0 to 100 (0 no effect, 100 complete control), read-out: Plant response rating, Johnsongrass): 0%
pest or weed control at 31 g/ha ([1]; pre-emergence, Preemergence, scale 0 to 100 (0 no effect, 100 complete control), read-out: Plant response rating, Johnsongrass): 60%
pest or weed control at 62 g/ha ([1]; pre-emergence, Preemergence, scale 0 to 100, 0 no effect, 100 complete control, read-out: Plant response rating, Johnsongrass): 65%
pest or weed control at 16 g/ha (kochia (Kochia scoparia); Bassia scoparia, post-emergence, Postemergence, 0 to 100 scale): 55%
pest or weed control at 31 g/ha (kochia (Kochia scoparia); Bassia scoparia, post-emergence, Postemergence, scale 0 to 100 (0 no effect, 100 complete control)): 60%
pest or weed control at 62 g/ha (kochia (Kochia scoparia); Bassia scoparia, post-emergence, Postemergence, scale 0 (no effect) to 100 (complete control), 13 to 15 days): 75%
pest or weed control at 125 g/ha (kochia (Kochia scoparia); Bassia scoparia, post-emergence, Postemergence, 125 g ai/ha, visual rating after 13 to 15 days, scale 0 (no effect) to 100 (complete control)): 80%
pest or weed control at 16 g/ha (kochia (Kochia scoparia); [7]): 0%
pest or weed control at 31 g/ha (kochia (Kochia scoparia); [7]): 100%
pest or weed control at 62 g/ha (kochia (Kochia scoparia); [7]): 100%
Kochia plant response rating (kochia (Kochia scoparia); [8]): 100
pest or weed control at 16 g/ha ([2]; Digitaria sanguinalis, post-emergence, Postemergence, 0 to 100 scale): 70%
pest or weed control at 31 g/ha ([2]; Digitaria sanguinalis, post-emergence, Postemergence, scale 0 to 100 (0 no effect, 100 complete control)): 80%
pest or weed control at 62 g/ha ([2]; Digitaria sanguinalis, post-emergence, Postemergence, scale 0 (no effect) to 100 (complete control), 13 to 15 days): 85%
pest or weed control at 125 g/ha ([2]; Digitaria sanguinalis, post-emergence, Postemergence, 125 g ai/ha, visual rating after 13 to 15 days, scale 0 (no effect) to 100 (complete control)): 90%
pest or weed control at 16 g/ha [2, 9]: 0%
pest or weed control at 31 g/ha [2, 9]: 15%
pest or weed control at 62 g/ha ([2]; Digitaria sanguinalis, pre-emergence, Preemergence, scale 0 to 100, 0 no effect, 100 complete control): 100%
Crabgrass, Large plant response rating [2, 8]: 100
pest or weed control at 16 g/ha ([3]; Ipomoea, post-emergence, Postemergence, 0 to 100 scale): 55%
pest or weed control at 31 g/ha ([3]; Ipomoea, post-emergence, Postemergence, scale 0 to 100 (0 no effect, 100 complete control)): 70%
pest or weed control at 62 g/ha ([3]; Ipomoea, post-emergence, Postemergence, scale 0 (no effect) to 100 (complete control), 13 to 15 days): 80%
pest or weed control at 125 g/ha ([3]; Ipomoea, post-emergence, Postemergence, 125 g ai/ha, visual rating after 13 to 15 days, scale 0 (no effect) to 100 (complete control)): 95%
pest or weed control at 16 g/ha [3, 10]: 0%
pest or weed control at 31 g/ha [3, 10]: 0%
pest or weed control at 62 g/ha ([3]; Ipomoea, pre-emergence, Preemergence, scale 0 to 100, 0 no effect, 100 complete control): 20%
Morningglory plant response rating [3, 8]: 75
plant injury at 16 g/ha (soybean (Glycine max); Glycine max, post-emergence, 16 g ai/ha, Postemergence, 0 to 100 scale, read-out: Plant response rating, Soybean): 75%
plant injury at 31 g/ha (soybean (Glycine max); Glycine max, post-emergence, Postemergence, read-out: Plant response rating, Soybean): 80%
plant injury at 62 g/ha (soybean (Glycine max); Glycine max, post-emergence, Postemergence, scale 0 (no effect) to 100 (complete control), 13 to 15 days, read-out: Plant response rating, Soybean): 90%
plant injury at 125 g/ha (soybean (Glycine max); Glycine max, post-emergence, Postemergence, 125 g ai/ha, visual rating after 13 to 15 days, scale 0 (no effect) to 100 (complete control)): 95%
plant injury at 31 g/ha (soybean (Glycine max); Glycine max, pre-emergence, Preemergence, read-out: Plant response rating, Soybean): 15%
plant injury at 62 g/ha (soybean (Glycine max); Glycine max, pre-emergence, Preemergence, scale 0 to 100, 0 no effect, 100 complete control, read-out: Plant response rating, Soybean): 60%
Soybean plant response rating (soybean (Glycine max); [8]): 70
pest or weed control at 31 g/ha ([4]; Abutilon theophrasti, post-emergence, 360 h, Postemergence, scale 0 to 100 (0 no effect, 100 complete control)): 85%
pest or weed control at 62 g/ha ([4]; Abutilon theophrasti, post-emergence, 360 h, Postemergence, scale 0 (no effect) to 100 (complete control), 13 to 15 days): 85%
pest or weed control at 125 g/ha ([4]; Abutilon theophrasti, post-emergence, 360 h, Postemergence, 125 g ai/ha, visual rating after 13 to 15 days, scale 0 (no effect) to 100 (complete control)): 90%
pest or weed control at 31 g/ha [4, 11]: 75%
pest or weed control at 62 g/ha [4, 11]: 90%
Velvetleaf plant response rating [4, 8]: 100
pest or weed control at 16 g/ha (wild oat (Avena fatua); Avena fatua, post-emergence, Postemergence, 0 to 100 scale, read-out: Plant response rating, Oat, Wild): 5%
pest or weed control at 31 g/ha (wild oat (Avena fatua); Avena fatua, post-emergence, Postemergence, 31 g ai/ha, scale 0 to 100 (0 no effect, 100 complete control), read-out: Plant response rating, Oat, Wild): 30%
pest or weed control at 62 g/ha (wild oat (Avena fatua); Avena fatua, post-emergence, Postemergence, scale 0 (no effect) to 100 (complete control), 13 to 15 days, read-out: Plant response rating, Oat, Wild): 45%
pest or weed control at 125 g/ha (wild oat (Avena fatua); Avena fatua, post-emergence, Postemergence, 125 g ai/ha, visual rating after 13 to 15 days, scale 0 (no effect) to 100 (complete control)): 55%
pest or weed control at 16 g/ha (wild oat (Avena fatua); [12]): 0%
pest or weed control at 62 g/ha (wild oat (Avena fatua); [12]): 5%
Oat, Wild plant response rating (wild oat (Avena fatua); [8]): 50
pest or weed control at 16 g/ha ([5]; Eriochloa villosa, post-emergence, Postemergence, 0 to 100 scale): 75%
pest or weed control at 31 g/ha ([5]; Eriochloa villosa, post-emergence, Postemergence, scale 0 to 100 (0 no effect, 100 complete control)): 75%
pest or weed control at 62 g/ha ([5]; Eriochloa villosa, post-emergence, Postemergence, scale 0 (no effect) to 100 (complete control), 13 to 15 days): 80%
pest or weed control at 125 g/ha ([5]; Eriochloa villosa, post-emergence, Postemergence, 125 g ai/ha, visual rating after 13 to 15 days, scale 0 (no effect) to 100 (complete control)): 85%
pest or weed control at 16 g/ha [5, 13]: 0%
pest or weed control at 31 g/ha [5, 13]: 0%
pest or weed control at 62 g/ha ([5]; Eriochloa villosa, pre-emergence, Preemergence, scale 0 to 100, 0 no effect, 100 complete control): 15%
Cupgrass, Woolly plant response rating [5, 8]: 20
pest or weed control at 16 g/ha ([6]; Cyperus, post-emergence, Postemergence, 0 to 100 scale): 40%
pest or weed control at 31 g/ha ([6]; Cyperus, post-emergence, Postemergence, scale 0 to 100 (0 no effect, 100 complete control)): 45%
pest or weed control at 62 g/ha ([6]; Cyperus, post-emergence, Postemergence, scale 0 (no effect) to 100 (complete control), 13 to 15 days): 60%
pest or weed control at 125 g/ha ([6]; Cyperus, post-emergence, Postemergence, 125 g ai/ha, visual rating after 13 to 15 days, scale 0 (no effect) to 100 (complete control)): 75%
pest or weed control at 16 g/ha [6, 14]: 0%
pest or weed control at 31 g/ha [6, 14]: 15%
pest or weed control at 62 g/ha [6, 14]: 40%
Nutsedge, Yellow plant response rating [6, 8]: 70
